Reference: US20090304763A1, “Insect Attractant Composition” (priority 2006, published 2009)

Experiments:
mosquitoes = test: test comparing acetone alone versus composition: share of available mosquitoes lured; assay type: in vivo; details: one test; acetone alone versus composition containing acetone, lactic acid and the fatty acid
[1] = surface energy of water with added acetone; assay type: physicochemical; details: 5% addition of acetone to water; water alone 73 dynes/cm
Description: While the C3-C12 ketones used in the composition are insufficient by themselves to act as an insect attractant; they provide other valuable properties to the composition. In particular, small-chain ketones have the ability to act as surface-active agents and thus provide the composition with a more consistent droplet diameter and a lower surface energy when the liquid composition is released. For instance, a 5% addition of acetone to water can reduce water surface energy from 73 dynes/cm to 56 dynes/cm. While not wishing to be bound by this theory, it is believed that producing a composition with a consistent and smaller diameter size provides a better presentation to the antennae of the flying insects.

Which results are given for `CC(C)=O` [acetone alone, acetone]?
average of all available mosquitoes lured (mosquitoes): 6.7%; water surface energy [1]: 56 dynes/cm
